# Source: PubChem BioAssay (NCI)
# Several values for one entry are separate records, joined by “and”; a condition that tells them apart may be missing. Equal values may be shown once.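 Compound exposure: 48 hours, 5 concentrations, 96-well plates. Here, GI50 denotes the concentration required for 50% inhibition of growth. TGI marks complete inhibition of growth.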
# Columns and labels:
# Experiment in all cases: NCI anticancer screen, dose series, 48 h
# [1] = system: HCT-116 colon
# [2] = system: HS 578T breast
# [3] = system: LOX IMVI melanoma
# [4] = system: MOLT-4 leukemia
# [5] = system: T-47D breast
# [6] = system: K-562 leukemia
# [7] = system: SK-MEL-5 melanoma
# [8] = system: SN12C renal
# [9] = system: SR leukemia
# [10] = system: KM12 colon
Compound,GI50 [1],TGI [1],GI50 [2],TGI [2],GI50 [3],TGI [3],GI50 [4],TGI [4],GI50 [5],TGI [5],GI50 [6],TGI [6],GI50 [7],TGI [7],GI50 [8],TGI [8],GI50 [9],TGI [9],GI50 [10],TGI [10]
C/C=C(/C)C(=O)OC1C=C(CO)C(=O)C(OC(=O)C2(C)OC2C)C1C(C)C (centres undefined),1.13 µM,2.48 µM,3.68 µM,22.9 µM,1.71 µM,3.3 µM,1.96 µM,6.5 µM,1.27 µM,2.79 µM,1.33 µM,10.8 µM,1.56 µM,3.04 µM,1.45 µM,2.99 µM,0.778 µM,8.2 µM,1.83 µM,3.67 µM
C=C1CC[C@@](C)(c2cc(Br)c(C)cc2OC(C)=O)[C@H]1C,8.81 µM,20.8 µM,19.3 µM,42.5 µM,14.8 µM,31 µM,9.99 µM,24.8 µM,10.7 µM,27.8 µM,14 µM,30.2 µM,15.6 µM,29.2 µM,11.4 µM,23.8 µM,11.2 µM,27.1 µM,6.38 µM,21.1 µM
Oc1ccc(/C=N/NC(=S)Nc2ccccc2)nc1,1.42 µM,> 100 µM,9.84 µM,> 100 µM,0.464 µM,16.6 µM,3.26 µM,> 100 µM,1.54 µM,> 100 µM,3.72 µM,> 100 µM,0.754 µM,3.36 µM,1.07 µM,> 100 µM,0.582 µM,> 100 µM,1.91 µM,> 100 µM
COC(=O)C1C(=O)C(C(=O)OC)C2CCC1N2C (centres undefined),,> 83.2 µM,,> 100 µM,,> 83.1 µM,,> 57.9 µM,,> 100 µM,,> 100 µM,,> 100 µM,,> 100 µM,,> 100 µM,,> 100 µM
CN1CCC(=C(c2ccc(Cl)cc2)c2ccccn2)CC1,66.5 µM,> 100 µM,44.9 µM,> 100 µM,56.7 µM,> 100 µM,> 100 µM,> 100 µM,> 100 µM,> 100 µM,74.7 µM,> 100 µM,50.7 µM,> 100 µM,> 100 µM,> 100 µM,> 100 µM,> 100 µM,> 100 µM,> 100 µM
Cc1ccc(/C=C(/C#N)n2nnc3cccc(F)c32)cc1,0.379 µM,6.54 µM,0.373 µM,> 36.8 µM,0.409 µM,1.81 µM,0.394 µM,> 100 µM,0.509 µM,> 100 µM,0.168 µM,> 100 µM,0.423 µM,4.22 µM,0.485 µM,12.8 µM,0.122 µM,> 35.5 µM,0.332 µM,5.16 µM
CN1C(=O)[C@@H](CC2CCCC2)N(C2CCCC2)c2nc(Nc3cc(Cl)c(O)c(Cl)c3)ncc21,13.1 µM,30.4 µM,21.6 µM,> 100 µM,19.5 µM,49.3 µM,12.2 µM,56 µM,12.9 µM,74.9 µM,14.6 µM,> 100 µM,17.4 µM,32.9 µM,21.4 µM,> 100 µM,13 µM,62.1 µM,37.5 µM,> 100 µM
CN(C)C/C=C/C(=O)Nc1ccc(C(=O)Nc2cccc(Nc3ncc(Cl)c(-c4c[nH]c5ccccc45)n3)c2)cc1,< 0.0131 µM,,0.0363 µM,0.195 µM,0.0133 µM,0.0856 µM,0.032 µM,> 100 µM,0.0284 µM,> 100 µM,< 0.0148 µM,> 100 µM,0.035 µM,> 100 µM,0.0249 µM,,0.017 µM,> 100 µM,0.0747 µM,0.232 µM
CC(=O)NC(CCc1ccc(Cl)c(Cl)c1)c1cccc(O)c(=O)c1 (centres undefined),0.315 µM,15.2 µM,2.61 µM,32.5 µM,0.559 µM,7.5 µM,0.74 µM,14.4 µM,1.1 µM,38.6 µM,0.653 µM,29.1 µM,0.234 µM,1.14 µM,0.485 µM,13.1 µM,0.622 µM,31.1 µM,0.825 µM,17.8 µM
Cc1cc(NS(=O)(=O)c2ccc(-c3cnc(C4CC4)o3)cc2)ccc1Cl,0.264 µM,13.4 µM,0.233 µM,11.5 µM,0.386 µM,14 µM,0.525 µM,46.8 µM,0.323 µM,23.3 µM,0.0567 µM,> 100 µM,0.253 µM,11.5 µM,0.961 µM,13.9 µM,0.0919 µM,45.6 µM,0.187 µM,13.4 µM
CCN(CC)CCOc1ccc2c(-c3ccccc3)c(-c3ccc(OC)cc3)c(=O)oc2c1,2.78 µM,10.5 µM,3.19 µM,15.5 µM,1.93 µM,4.27 µM,2.82 µM,8.27 µM,3.57 µM,15.9 µM,2.55 µM,10.5 µM,1.77 µM,3.55 µM,10.8 µM,23.9 µM,1.62 µM,4.33 µM,3.83 µM,14.1 µM
N#Cc1c(-c2ccccc2)nc(SCC(O)CN2CCOCC2)nc1N1CCOCC1 (centres undefined),32.4 µM,> 100 µM,6.22 µM,63.2 µM,17.6 µM,> 100 µM,16.1 µM,> 100 µM,1.33 µM,6.03 µM,20 µM,> 100 µM,2.99 µM,47.9 µM,18.9 µM,> 100 µM,32.2 µM,> 100 µM,30.2 µM,> 100 µM
Cc1ncnc2c1ccn2[C@@H]1C[C@H](Oc2cc(C(F)F)c(F)c3c2CNCC3)[C@@H](O)[C@H]1O,> 100 µM,> 100 µM,> 100 µM,> 100 µM,> 100 µM,> 100 µM,> 100 µM,> 100 µM,> 100 µM,> 100 µM,> 100 µM,> 100 µM,> 100 µM,> 100 µM,> 100 µM,> 100 µM,> 100 µM,> 100 µM,> 100 µM,> 100 µM
CCN1C[C@@H](C)n2c(c(O)c3c(=O)n(Cc4ccc(F)c(Cl)c4)nc(C(=O)NC)c32)C1=O,3.21 µM,> 100 µM,2.48 µM,7.42 µM,3.13 µM,18 µM,4.18 µM,> 100 µM,3.57 µM,> 100 µM,3.39 µM,> 100 µM,1.98 µM,4.49 µM,3.08 µM,> 100 µM,3.22 µM,14.8 µM,2.73 µM,7.71 µM
COc1ccc(/C=C/C(=O)OC2CC34CCNC35CC(OC5(OC)C2OC)c2ccc(OC)c(O)c24)cc1O (centres undefined),47.2 µM and > 100 µM,> 100 µM,,> 100 µM,30.4 µM and > 100 µM,76.5 µM and > 100 µM,22.4 µM and > 100 µM,93.1 µM and > 100 µM,,> 100 µM,33.7 µM and > 100 µM,> 100 µM,,> 100 µM,,> 100 µM,25.4 µM and > 100 µM,> 100 µM,31.6 µM and > 100 µM,> 100 µM
O=C(Nc1nc2ccc(OC(F)(F)F)cc2s1)c1ccc(F)cc1,2.98 µM,10.1 µM,3.12 µM,> 100 µM,3.21 µM,9.03 µM,3.08 µM,84.9 µM,2.64 µM,9.78 µM,3.58 µM,> 100 µM,2.45 µM,6.6 µM,2.58 µM,8.21 µM,3.68 µM,14.1 µM,2.69 µM,> 100 µM
CC[C@@]1(O)C(=O)OCc2c1cc1n(c2=O)Cc2cc3cc(O)ccc3nc2-1,0.0228 µM and 0.0176 µM,13.7 µM,,8.52 µM,,1.17 µM and 0.224 µM,0.011 µM,,,> 100 µM,0.0419 µM and 0.0427 µM,24.7 µM and > 46.5 µM,0.0247 µM and 0.0167 µM,0.111 µM and 0.0959 µM,,1.48 µM and 3.54 µM,,2.14 µM,0.127 µM and 0.142 µM,2.34 µM and 5.38 µM
CCNCCS(=O)(=O)NC[C@@]1(c2ccccc2)SC(NC(=O)C(C)(C)C)=NN1C(=O)C(C)(C)C,< 0.01 µM,> 100 µM,< 0.01 µM,> 100 µM,< 0.0285 µM,> 47.3 µM,< 0.0139 µM,> 100 µM,< 0.01 µM,> 100 µM,< 0.01 µM,> 100 µM,< 0.01 µM,20.3 µM,< 0.01 µM,> 100 µM,< 0.01 µM,22.3 µM,< 0.01 µM,> 100 µM
O=C(CC(O)(C(F)(F)F)C(F)(F)F)c1cccs1,,> 10 µM,,> 10 µM,,> 10 µM,,> 10 µM,,> 10 µM,,> 10 µM,,> 10 µM,,> 10 µM,,> 10 µM,,> 10 µM
Nc1ncc(-c2ccc3ncnc(N4CCc5cc(F)c(Cl)cc54)c3c2)cc1C=O,2.29 µM,> 100 µM,0.369 µM,3.06 µM,2.52 µM,> 100 µM,1.01 µM,6.56 µM,0.587 µM,> 100 µM,2.82 µM,> 100 µM,1.87 µM,4.54 µM,1.05 µM,> 100 µM,2.67 µM,> 26 µM,2.86 µM,> 100 µM
O=C(O)C1CC[N-]CC1.O=C(O)C1CC[N-]CC1.[NH2-].[NH2-].[Pt+4],> 100 µM,> 100 µM,> 100 µM,> 100 µM,> 100 µM,> 100 µM,> 100 µM,> 100 µM,> 100 µM,> 100 µM,> 100 µM,> 100 µM,> 100 µM,> 100 µM,> 100 µM,> 100 µM,> 100 µM,> 100 µM,> 100 µM,> 100 µM
N#CC(Cl)CS(=O)(=O)c1ccccc1 (centres undefined),,12.2 µM,,> 100 µM,,22 µM,0.0561 µM,3.62 µM,,6.06 µM,,4.85 µM,,29.6 µM,,31.7 µM,,12.1 µM,,33.3 µM
CC(C)(Oc1cccc(N2CCC[C@@H](C(=O)N(Cc3ccc(-c4cn[nH]c4)cc3)C3CC3)C2)c1)C(=O)N1CCNCC1,12.6 µM,27.8 µM,5.14 µM,29.4 µM,11.8 µM,25 µM,12.1 µM,55.8 µM,12.6 µM,34.3 µM,3.5 µM,18.4 µM,10.3 µM,22.1 µM,12.1 µM,25.3 µM,7.87 µM,28.6 µM,14.8 µM,28.8 µM
O=C(O)c1cc(-c2ccc(-c3ccccc3)cc2)nc2cc3ccccc3cc12,,> 100 µM,,> 100 µM,,> 100 µM,,> 100 µM,,> 100 µM,,> 100 µM,,> 100 µM,,> 100 µM,,> 100 µM,,> 100 µM
Nc1nc(N)c2c(Cl)c(CNc3ccc(Cl)c(Cl)c3)ccc2n1,,12.4 µM,,11.9 µM,,7.37 µM,,9.41 µM,,23.3 µM,,2.97 µM,,4.65 µM,,23.3 µM,,7.36 µM,,3.19 µM
O=C1NC(=NCCc2ccccc2F)S/C1=C\c1ccc2ncccc2c1,1.27 µM,> 25 µM,7.05 µM,> 23.4 µM,1.82 µM,> 25 µM,9.02 µM,> 25 µM,9.55 µM,> 25 µM,2.78 µM,> 25 µM,5.85 µM,19.4 µM,8.18 µM,> 25 µM,0.88 µM,8.83 µM,4.02 µM,> 25 µM
C/C(=N\O)C1CC(CC(=O)O)C1(C)C (centres undefined),,> 100 µM,,> 100 µM,,> 100 µM,,> 100 µM,,> 100 µM,,> 100 µM,,> 100 µM,,> 100 µM,,> 100 µM,,> 100 µM
CCc1nc(N)nc(N)c1-c1ccc(N2CCNCC2)c([N+](=O)[O-])c1,,> 100 µM,,> 74.2 µM,,> 66.1 µM,,> 100 µM,,> 100 µM,,> 90.2 µM,,28.3 µM,,> 100 µM,,> 100 µM,,> 100 µM
